Laboratory results reported in PMC5882164, “A novel calcimimetic agent, evocalcet (MT-4580/KHK7580), suppresses the parathyroid cell function with little effect on the gastrointestinal tract or CYP isozymes in vivo and in vitro” (PLoS ONE, 2018).
Values joined by “and” are separate entries in the source; they are usually repeats but may differ in a detail not shown here. Equal entries are not always repeated.

Key:
gastric emptying = test: Evaluation of gastric emptying in rats (phenol red); assay type: in vivo, rat
Procedure: The study of gastric emptying in rats was performed by referencing a previously reported method. […] The rats were divided into eight body-weight-matched groups (n = 8/group). […] Ten minutes later, 0.05 w/v% phenol red, a non-absorbable marker solution (1.5 mL/body), was orally administered. Thirty minutes after the administration of phenol red, the rats were euthanized by cervical dislocation, and the gastric body clamped at the cardiac and pyloric part of the stomach was obtained. The stomach was homogenized by adding 0.1 M NaOH and centrifugated. The supernatant was mixed with 20 w/v% trichloroacetic acid. After centrifugation, the supernatant was mixed with the same volume of 0.5 mol/L NaOH, and the absorbance was measured at 560 nm. The gastric emptying rate was calculated by the following formula: […]=[1-(opticaldensity[[…])]×100

serum PTH [1] = test: Serum PTH reduction in common marmosets; assay type: in vivo, common marmoset; design: Serum PTH levels: unit not given here
Procedure: The study of effect of evocalcet on emesis in common marmoset was performed by referencing a previously reported method. The marmosets (n = 24) used for this study were housed in cages (460 × 600 × 655 mm) with environmental enrichments (wooden perches, swing, and balls) and acclimated for at least 4 weeks. The marmosets were fasted from evening on the day before administration. […] The serum PTH level was measured using a Porcine Intact PTH ELISA kit (Immutopics, Inc., San Clemente, CA, USA). To evaluate the emetic effects in marmosets, evocalcet (50 or 150 μg/kg) or cinacalcet (1500 or 5000 μg/kg) was orally administered (n = 6/drug, dose down titration, n = 12 in total). The observation of emesis was conducted until 4 h after the administration.

serum PTH [2] = test: Normal rat study: serum PTH level after oral administration; assay type: in vivo; conditions: normal rats
Procedure: (§1) After acclimatization, rats were divided into nine groups (n = 10/group) matched in terms of body weight, and their serum PTH and calcium levels. Vehicle, 0.5% (w/v) methyl cellulose (Wako Pure Chemical Industries, Ltd.) solution orally administered to vehicle treatment group rats. Evocalcet (0.03, 0.1, 0.3, or 1 mg/kg), or cinacalcet (1, 3, 10, or 30 mg/kg) were suspended in the vehicle solution and orally administered to each drug treatment group. Blood samples were collected from the tail vein before and at 0.5, 2, 4, 6, 8, and 24 h after the oral administration.
(§2) The serum PTH level was measured using a Rat Intact PTH ELISA kit (Immutopics, Inc., San Clemente, CA). The serum calcium, phosphate and BUN levels were measured using an auto analyzer (Hitachi High-Technologies Corporation., Tokyo, Japan) or the following test kits: the Calcium E-test WAKO, the Phospha C-test WAKO, or the Blood Urea nitrogen B-test WAKO (Wako Pure Chemical Industries, Ltd., Osaka, Japan).

serum calcium = test: Normal rat study: serum calcium level after oral administration; assay type: in vivo; design: Serum Ca: unit not given here; conditions: normal rats
Procedure: as §1, §2

[3] = evocalcet 0.03 mg/kg oral, 0 h (before administration), group mean, n = 10
[4] = evocalcet 0.03 mg/kg oral, 0 h (before administration), individual rats
[5] = evocalcet 0.03 mg/kg oral, 0.5 h, group mean, n = 10
[6] = evocalcet 0.03 mg/kg oral, 0.5 h, individual rats
[7] = evocalcet 0.03 mg/kg oral, 2 h, group mean, n = 10
[8] = evocalcet 0.03 mg/kg oral, 2 h, individual rats
[9] = evocalcet 0.03 mg/kg oral, 4 h, group mean, n = 10
[10] = evocalcet 0.03 mg/kg oral, 4 h, individual rats
[11] = evocalcet 0.03 mg/kg oral, 6 h, group mean, n = 10
[12] = evocalcet 0.03 mg/kg oral, 6 h, individual rats
[13] = evocalcet 0.03 mg/kg oral, 8 h, group mean, n = 10
[14] = evocalcet 0.03 mg/kg oral, 8 h, individual rats
[15] = evocalcet 0.03 mg/kg oral, 24 h, group mean, n = 10
[16] = evocalcet 0.03 mg/kg oral, 24 h, individual rats
[17] = evocalcet 0.1 mg/kg oral, 0 h (before administration), individual rats
[18] = evocalcet 0.1 mg/kg oral, 0.5 h, individual rats
[19] = evocalcet 0.1 mg/kg oral, 2 h, individual rats
[20] = evocalcet 0.1 mg/kg oral, 4 h, individual rats
[21] = evocalcet 0.1 mg/kg oral, 6 h, individual rats
[22] = evocalcet 0.1 mg/kg oral, 8 h, individual rats
[23] = evocalcet 0.1 mg/kg oral, 24 h, individual rats
[24] = single oral dose, vs vehicle group

SMILES: C[C@@H](N[C@H]1CCN(c2ccc(CC(=O)O)cc2)C1)c1cccc2ccccc12 [evocalcet]
- Gastric Emptying (gastric emptying; 0.3 mg/kg, group mean): 67.83%
- Gastric Emptying (gastric emptying; 0.3 mg/kg, individual rats): 75.29% and 74.04% and 68.43% and 31.88% and 68.64% and 79.44% and 65.73% and 79.23%
- Gastric Emptying (gastric emptying; 1 mg/kg, group mean): 65.89%
- Gastric Emptying (gastric emptying; 1 mg/kg, individual rats): 38.94% and 71.96% and 52.65% and 74.45% and 73.42% and 65.94% and 77.15% and 72.59%
- Gastric Emptying (gastric emptying; 3 mg/kg, group mean): 61.58%
- Gastric Emptying (gastric emptying; 3 mg/kg, individual rats): 69.47% and 67.19% and 53.48% and 63.03% and 78.82% and 61.16% and 64.49% and 34.99%
- Dose (3 mg/kg) without delay of gastric emptying relative to the dose required for a significant PTH reduction (gastric emptying; oral): 100 fold
- Effect on gastric emptying (gastric emptying; oral 0.3, 1 and 3 mg/kg (any dose)): no significant effects
- Serum PTH levels (serum PTH [1]; 5 μg/kg, 1 h, individual animals): 19.1 and 25.6 and 158.9
- Serum PTH levels (serum PTH [1]; 5 μg/kg, 1 h, mean): 67.9
- Serum PTH levels (serum PTH [1]; 5 μg/kg, 4 h, individual animals): 52.9 and 115.9 and 433.3
- Serum PTH levels (serum PTH [1]; 5 μg/kg, 4 h, mean): 200.7
- Serum PTH levels (serum PTH [1]; 5 μg/kg, before administration, individual animals): 92.1 and 97.8 and 541.4
- Serum PTH levels (serum PTH [1]; 5 μg/kg, before administration, mean): 243.8
- Serum PTH levels (serum PTH [1]; 150 μg/kg, 1 h, individual animals): 36.4 and 52.9 and 258.2
- Serum PTH levels (serum PTH [1]; 150 μg/kg, 1 h, mean): 115.9
- Serum PTH levels (serum PTH [1]; 150 μg/kg, 4 h, individual animals): 81.0 and 188.4 and 311.9
- Serum PTH levels (serum PTH [1]; 150 μg/kg, 4 h, mean): 193.8
- Serum PTH levels (serum PTH [1]; 150 μg/kg, before administration, individual animals): 57.2 and 203.0 and 236.6
- Serum PTH levels (serum PTH [1]; 150 μg/kg, before administration, mean): 165.6
- Minimum effective dose on PTH reduction (serum PTH [1]; oral): 0.005 mg/kg
- Serum PTH (serum PTH [2]; [3]): 117.288
- Serum PTH (serum PTH [2]; [4]): 129.159 and 98.086 and 98.874 and 128.658 and 81.261 and 126.366 and 104.386 and 122.715 and 112.906 and 170.470
- Serum PTH (serum PTH [2]; [5]): 51.998
- Serum PTH (serum PTH [2]; [6]): 33.535 and 36.787 and 59.553 and 50.196 and 64.403 and 70.451 and 74.902 and 34.333 and 15.500 and 80.322
- Serum PTH (serum PTH [2]; [7]): 103.394
- Serum PTH (serum PTH [2]; [8]): 15.500 and 69.801 and 132.927 and 117.200 and 119.941 and 109.480 and 83.508 and 88.630 and 158.250 and 138.699
- Serum PTH (serum PTH [2]; [9]): 147.651
- Serum PTH (serum PTH [2]; [10]): 111.671 and 66.789 and 176.435 and 179.922 and 200.545 and 117.161 and 137.784 and 93.718 and 165.530 and 226.956
- Serum PTH (serum PTH [2]; [11]): 186.457
- Serum PTH (serum PTH [2]; [12]): 167.854 and 143.511 and 260.179 and 212.225 and 211.330 and 175.263 and 176.565 and 131.380 and 164.597 and 221.669
- Serum PTH (serum PTH [2]; [13]): 183.556
- Serum PTH (serum PTH [2]; [14]): 144.862 and 141.432 and 139.974 and 226.246 and 213.297 and 177.022 and 177.107 and 148.207 and 214.155 and 253.260
- Serum PTH (serum PTH [2]; [15]): 111.913
- Serum PTH (serum PTH [2]; [16]): 85.800 and 128.079 and 93.520 and 115.512 and 45.316 and 85.890 and 75.657 and 215.959 and 131.939 and 141.454
- Serum PTH (serum PTH [2]; [17]): 112.047 and 96.726 and 90.998 and 167.821
- Serum PTH (serum PTH [2]; [18]): 33.820 and 15.500
- Serum PTH (serum PTH [2]; [19]): 42.097 and 52.053 and 15.500
- Serum PTH (serum PTH [2]; [20]): 266.348 and 163.156 and 79.252 and 192.014
- Serum PTH (serum PTH [2]; [21]): 153.036 and 149.943 and 133.171 and 173.553
- Serum PTH (serum PTH [2]; [22]): 303.000 and 168.617 and 221.701
- Serum PTH (serum PTH [2]; [23]): 120.270 and 80.325 and 122.155
- Strength of pharmacological effect relative to cinacalcet at the same dosage (serum PTH [2]; oral): approximately 30 times
- Doses that significantly reduced the serum PTH level (serum PTH [2]; [24]): ≥ 0.03 mg/kg
- Serum Ca (serum calcium; [3]): 10.9
- Serum Ca (serum calcium; [4]): 10.2 and 11.0 and 11.2 and 10.8
- Serum Ca (serum calcium; [5]): 11.0
- Serum Ca (serum calcium; [6]): 10.2 and 10.6 and 11.8 and 10.4 and 11.2 and 11.4
- Serum Ca (serum calcium; [7]): 10.8
- Serum Ca (serum calcium; [8]): 10.0 and 11.2 and 10.6 and 10.8 and 11.0 and 10.4
- Serum Ca (serum calcium; [9]): 10.4
- Serum Ca (serum calcium; [10]): 10.2 and 10.8 and 10.0 and 10.6 and 10.4
- Serum Ca (serum calcium; [11]): 10.3
- Serum Ca (serum calcium; [12]): 10.0 and 10.4 and 10.2 and 10.6
- Serum Ca (serum calcium; [13]): 10.5
- Serum Ca (serum calcium; [14]): 9.6 and 10.0 and 8.6 and 10.6 and 11.4 and 10.8 and 12.6
- Serum Ca (serum calcium; [15]): 10.5
- Serum Ca (serum calcium; [16]): 10.2 and 10.4 and 10.6 and 10.8
- Serum Ca (serum calcium; evocalcet 0.1 mg/kg oral, 0 h (before administration), group mean, n = 10): 10.9
- Serum Ca (serum calcium; [17]): 11.0 and 10.8
- Serum Ca (serum calcium; evocalcet 0.1 mg/kg oral, 0.5 h, group mean, n = 10): 10.7
- Serum Ca (serum calcium; [18]): 10.6 and 10.0
- Serum Ca (serum calcium; evocalcet 0.1 mg/kg oral, 2 h, group mean, n = 10): 10.1
- Serum Ca (serum calcium; [19]): 10.2 and 10.0 and 9.8
- Serum Ca (serum calcium; evocalcet 0.1 mg/kg oral, 4 h, group mean, n = 10): 9.8
- Serum Ca (serum calcium; [20]): 9.8 and 10.0 and 10.2 and 9.6
- Serum Ca (serum calcium; evocalcet 0.1 mg/kg oral, 6 h, group mean, n = 10): 9.9
- Serum Ca (serum calcium; [21]): 10.0 and 10.4 and 9.8
- Serum Ca (serum calcium; evocalcet 0.1 mg/kg oral, 8 h, group mean, n = 10): 10.6
- Serum Ca (serum calcium; [22]): 10.4 and 10.8 and 10.6
- Serum Ca (serum calcium; evocalcet 0.1 mg/kg oral, 24 h, group mean, n = 10): 11.6
- Serum Ca (serum calcium; [23]): 12.6 and 10.8 and 12.0
- Serum Ca (serum calcium; evocalcet 0.3 mg/kg oral, 0 h (before administration), individual rats): 10.4 and 10.8 and 11.2
- Serum Ca (serum calcium; evocalcet 0.3 mg/kg oral, 0.5 h, individual rats): 9.6 and 9.4 and 10.4 and 10.0
- Serum Ca (serum calcium; evocalcet 0.3 mg/kg oral, 2 h, individual rats): 9.0 and 9.2 and 9.4 and 9.8
- Serum Ca (serum calcium; evocalcet 0.3 mg/kg oral, 4 h, individual rats): 8.8 and 9.6 and 9.4 and 9.8 and 9.2 and 9.0
- Serum Ca (serum calcium; evocalcet 0.3 mg/kg oral, 6 h, individual rats): 8.6 and 9.8 and 9.6 and 9.4 and 9.0
- Serum Ca (serum calcium; evocalcet 0.3 mg/kg oral, 8 h, individual rats): 9.8 and 10.4 and 9.4 and 8.8
- Serum Ca (serum calcium; evocalcet 0.3 mg/kg oral, 24 h, individual rats): 14.8 and 11.4 and 11.0 and 11.2
- Doses that significantly reduced the serum calcium level (serum calcium; [24]): ≥ 0.1 mg/kg
